Results taken from PMC4942819 (Scientific Reports, 2016).

Key:
J774A.1 cells = test: cytotoxicity, MTT assay; assay type: cell-based; conditions: Mus musculus, J774.A1
Procedure: (§1) The compounds were examined for toxicity (IC50) using MTT assay. Briefly, cells (3 ~ 5 × 10^3 cells/well) were seeded in a 96-well plate. After 24 h incubation, the cells were treated with various concentrations of drugs for 24, 48, 72 h, respectively. Columns one and two in the assay plates contained-media +0.1% DMSO for a negative control ,Then, 20 μl of a 5 mg/mL MTT solution was added to each well, and the plates were incubated for an additional 2~4 h at 37 °C. The medium was subsequently discarded, and DMSO 150 μL was added to dissolve the formazan. Oscillate 15 min, the OD 570 was measured using a Spectra MAX M5 microplate spectrophotometer (Molecular Devices, CA, USA), and the IC50 values were calculated.

A549 cells = test: cytotoxicity, MTT assay; assay type: cell-based; conditions: Homo sapiens
Procedure: as §1

CYP2C9 = CYP2C9 (Homo sapiens, UniProt P11712); test: CYP inhibition; assay type: in vitro ADME
Procedure: (§2) The In vitro ADME/T assays were conducted at WuXi AppTec Co. Ltd.(Shanghai). ClogP was calculated with ChemDraw Ultra 14.0. In the study of bi-directional permeability across MDR1-MDCKII cell monolayer, permeability was correlated with the apparent permeability coefficient Papp (cm/s), which was interpreted as follows: Low permeability( Papp ≤ 1.0×10^-6 cm/s), Moderate permeability(1.0×10^-6 < Papp < 5.5×10^-6 cm/s) or High permeability( Papp ≥ 5.5×10^-6 cm/s). ^aaqueous solubility at room temperature.

CYP3A4 = CYP3A4 (Homo sapiens, UniProt P08684); test: CYP inhibition; assay type: in vitro ADME
Procedure: as §2

CYP2D6 = CYP2D6 (Homo sapiens, UniProt P10635); test: CYP inhibition; assay type: in vitro ADME
Procedure: as §2

CYP2C19 = CYP2C19 (Homo sapiens, UniProt P33261); test: CYP inhibition; assay type: in vitro ADME
Procedure: as §2

M. tuberculosis Erdman = test: in vivo acute M.tb Erdman infection mouse model; set-up: species or system Mycobacterium tuberculosis; conditions: BALB/c mice
[1] = pharmacokinetic study in SD rats; assay type: in vivo; conditions: female, rat, plasma, SD rats
Procedure: All animal experiments have been approved by the Institutional Animal Care and Treatment Committee of Sichuan University in China and were carried out in accordance with the approved guidelines. SPF female SD rats weighing 180–220 g were used in the pharmacokinetic study. The rats were fasted overnight before dosing. Every treatment group contain 3 rats. Rats were dosed with SKLB-TB1001 or BTZ043 suspension at 5 mg/kg (i.v. and p.o.). Compounds were dissolved in 5% DMSO/10% Solutol HS15 in saline for intravenous injection and suspended in 0.5% CMC for oral administration. Blood was collected from the jugular vein of each animal at the following times after administration of drugs: 0.083, 0.25, 0.5, 1, 2, 4, 6, 8 and 24 h after a single i.v. dosing; and 0.25, 0.5, 1, 2, 4, 6, 8 and 24 h after a single oral dosing. All blood samples were centrifuged at 3000 r/min for 10 min to obtain serum which was then stored at −20 °C. 150 μL of the serum was added to 500 μL of acetonitrile and the mixture was centrifuged at 13000 r/min for 10 min to remove protein. The supernatant was dried and dissolve in 100 μL of acetonitrile, the solution was centrifuged at 13000 r/min for 10 min. The supernatant was moved to a sample bottle for HPLC analysis. Total area under the concentration time curve (AUC), the elimination half-time (t1/2), the peak concentration (Cmax) and the time to reach peak concentration (Tmax) of samples were determined directly from the experimental data using WinNonlin V6.2.1.

CYP2D6, sequence (P10635 whole entry): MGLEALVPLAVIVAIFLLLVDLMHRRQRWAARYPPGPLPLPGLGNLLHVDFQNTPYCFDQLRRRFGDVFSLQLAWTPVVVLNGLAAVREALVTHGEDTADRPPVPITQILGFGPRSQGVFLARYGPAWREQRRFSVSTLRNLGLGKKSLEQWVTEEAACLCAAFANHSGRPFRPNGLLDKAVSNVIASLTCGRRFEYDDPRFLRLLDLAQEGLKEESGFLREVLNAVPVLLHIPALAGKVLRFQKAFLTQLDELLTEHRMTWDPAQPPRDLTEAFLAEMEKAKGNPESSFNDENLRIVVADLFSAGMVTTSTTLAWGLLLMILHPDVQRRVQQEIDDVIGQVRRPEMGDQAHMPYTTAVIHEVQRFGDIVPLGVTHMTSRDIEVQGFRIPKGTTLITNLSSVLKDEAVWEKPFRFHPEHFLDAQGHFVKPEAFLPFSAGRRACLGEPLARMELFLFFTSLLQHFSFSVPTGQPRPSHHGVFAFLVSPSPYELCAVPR
CYP3A4, sequence (P08684 whole entry): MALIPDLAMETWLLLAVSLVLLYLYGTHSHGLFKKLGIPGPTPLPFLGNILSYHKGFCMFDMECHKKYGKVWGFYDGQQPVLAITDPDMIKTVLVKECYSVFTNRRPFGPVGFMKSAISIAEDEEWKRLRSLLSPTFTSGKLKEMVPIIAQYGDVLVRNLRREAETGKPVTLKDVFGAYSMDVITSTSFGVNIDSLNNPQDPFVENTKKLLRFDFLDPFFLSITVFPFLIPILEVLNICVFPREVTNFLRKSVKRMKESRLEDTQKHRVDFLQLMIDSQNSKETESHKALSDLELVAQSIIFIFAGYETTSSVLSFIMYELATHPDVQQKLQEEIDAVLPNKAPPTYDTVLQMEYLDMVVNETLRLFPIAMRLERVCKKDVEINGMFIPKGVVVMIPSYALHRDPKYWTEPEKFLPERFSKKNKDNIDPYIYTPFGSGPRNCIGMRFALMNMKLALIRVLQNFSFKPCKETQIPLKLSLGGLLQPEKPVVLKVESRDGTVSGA
CYP2C9, sequence (P11712 whole entry): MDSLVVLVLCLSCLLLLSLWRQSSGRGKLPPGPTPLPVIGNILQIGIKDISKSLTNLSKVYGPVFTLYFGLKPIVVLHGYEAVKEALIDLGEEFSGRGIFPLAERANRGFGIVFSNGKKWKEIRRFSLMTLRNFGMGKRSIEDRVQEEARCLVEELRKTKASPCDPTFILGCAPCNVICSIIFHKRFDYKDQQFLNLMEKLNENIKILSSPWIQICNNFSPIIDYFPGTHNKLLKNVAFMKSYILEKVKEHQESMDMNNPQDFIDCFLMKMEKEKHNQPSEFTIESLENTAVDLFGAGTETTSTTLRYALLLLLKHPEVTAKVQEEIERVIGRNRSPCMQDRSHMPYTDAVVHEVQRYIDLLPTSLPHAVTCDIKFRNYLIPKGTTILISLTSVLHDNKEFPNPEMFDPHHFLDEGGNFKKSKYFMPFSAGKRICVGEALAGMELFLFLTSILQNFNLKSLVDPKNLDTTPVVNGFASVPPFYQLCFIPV
CYP2C19, sequence (P33261 whole entry): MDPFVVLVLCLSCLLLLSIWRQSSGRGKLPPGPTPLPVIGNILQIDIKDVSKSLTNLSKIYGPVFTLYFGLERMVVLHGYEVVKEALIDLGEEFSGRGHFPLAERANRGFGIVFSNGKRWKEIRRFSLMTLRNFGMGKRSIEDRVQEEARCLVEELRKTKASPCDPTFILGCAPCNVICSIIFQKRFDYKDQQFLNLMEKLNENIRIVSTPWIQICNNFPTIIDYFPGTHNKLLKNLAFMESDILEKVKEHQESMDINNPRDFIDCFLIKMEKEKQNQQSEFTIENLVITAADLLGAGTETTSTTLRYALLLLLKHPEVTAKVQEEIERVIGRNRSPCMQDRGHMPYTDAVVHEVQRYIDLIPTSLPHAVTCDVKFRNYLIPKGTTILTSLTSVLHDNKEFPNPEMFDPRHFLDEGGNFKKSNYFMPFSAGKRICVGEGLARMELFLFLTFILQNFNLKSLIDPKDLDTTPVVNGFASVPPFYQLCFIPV

For `O=[N+]([O-])c1cc(C(F)(F)F)cc2c(=S)nc(N3CCC4(CC3)OCCO4)sc12` [SKLB-TB1001, 8-nitro-2-(1,4-dioxa-8-azaspiro[4.5]decan-8-yl)-6-(trifluoromethyl)-4H-benzo[e][1,3]thiazine-4-thione], the IC50 (J774A.1 cells) was greater than 32 µg/mL, the IC50 (A549 cells) was greater than 100 µg/mL and the IC50 (CYP2C9) was greater than 10 µM. It also gave an IC50 (CYP3A4) greater than 10 µM, an IC50 (CYP2D6) greater than 10 µM and an IC50 (CYP2C19) greater than 10 µM. For the same compound, the “reduction of M.tb CFU in lungs compared to the vehicle group” value (M. tuberculosis Erdman; 150 mg/kg daily for 4 weeks) was 3.4 logs, the “reduction of M.tb CFU in lungs compared to treatment initiation” value (M. tuberculosis Erdman; 150 mg/kg daily for 4 weeks) was 0.87 logs and the “Log10 CFU (SD), bacterial burden in mouse lungs” value (M. tuberculosis Erdman; Day-36, 150 mg/kg oral daily from day 10) was 2.84 (2.93). It also gave a bioavailability ([1]; oral, AUC (p.o., 5 mg/kg)/AUC(i.v., 5 mg/kg), read-out: F, absolute oral bioavailability) of 44.4%, a half-life ([1]; po, 5 mg/kg, terminal half-life for elimination) of 1.45 h and an AUC ([1]; po, p.o., 5 mg/kg, t = 0 to infinity, read-out: AUC) of 847 ng·h/mL. The Tmax ([1]; po, p.o., 5 mg/kg, read-out: Tmax) was 1.13 h and the Cmax ([1]; po, p.o., 5 mg/kg, read-out: Cmax) was 193 ng/mL.
